Source: patent publication US11130762B2, “Azaaryl derivative, preparation method therefor, and application thereof for use in pharmacy” (Abbisko Therapeutics Co., Ltd., priority 2017, dated 2021)
pIC50: −log10 of the molar value.

Test system: NCI-H1703 human non-small cell lung squamous carcinoma cells
Experiment: Cell proliferation (Cell Titer Glo), NCI-H1703 cells (PDGFRA)
Assay type: cell-based
Details: 72 h, 3 days, CTG, * = average of multiple tests, read-out: Cytological experiment PDGFRA IC50
Experimental: D. CSF-1R-Related Cell Proliferation Experiment
Functional effects of compounds on the proliferation of several cell lines were evaluated by Cell Titer Glo (CTG) studies in the present invention, and effects of the compounds on the proliferation of different cells were evaluated to determine the selectivity degree of the compounds. In the experiment, M-07e human cytomegalic leukemia cells (cat. No. CBP60791) from Nanjing Kebai Biotechnology Co., Ltd. were cultured in an incubator under conditions of RPMI1640 (Gibco, cat. No. 11875-119), 20% fetal bovine serum (Gibco, 10099-141), human 10 ng/mL GM-CSF granulocyte macrophage colony-stimulating factors (R&D, cat. No. 215-GM-010), 37° C., and 5% CO2; and Kasumi-1 human acute myeloblastic leukemia cells (cat. No. CBP60524) were cultured in an incubator under conditions of RPMI1640 (Gibco, cat. No. 11875-119), 20% fetal bovine serum (Gibco, 10099-141), 37° C., and 5% CO2: NCI-H1703 human non-small cell lung squamous carcinoma cells (cat. No. CBP60115) were cultured in an incubator under conditions of RPMI1640 (Gibco, cat. No. 11875-119), 10% fetal bovine serum (Gibco, 10099-141), 37° C., and 5% CO2; MV-4-11 human acute monocytic leukemia cells (cat. No. CBP60522) were cultured in an incubator under conditions of IMDM (Invitrogen, cat. No. 12440053), 20% fetal bovine serum (Gibco, 10099-141), 37° C., and 5% CO2. Since ATP is an index for viable cell metabolism, CTG (Promega, #G7573) reagent is a homogeneous detection method for detecting the number of viable cells in the culture by quantifying ATP. Therefore, compound-mediated inhibition for cell proliferation/survival was evaluated by quantifying ATP content in cells, and the specific experimental process was as follows.
II) NCI-H1703 Human Non-Small Cell Lung Squamous Carcinoma Cell
1. The cells were inoculated into a tissue-culture-medium-treated 96-well plate (Costar #3904) with 5000 cells/well/90 μL fresh culture medium, and cultured for 24 hrs;
2. the next day, 10 μL of culture medium containing testing compound with 10-fold of final concentration was added to each well:
3. the dosage effect was evaluated by testing 3-fold serial dilutions of the compound, which started from 18 μM;
4. after the cells were incubated for 3 days at 37° C. and 5% CO2, the inhibition on cell survival was quantified after 50 μL of CTG was added and the luminescence assay was performed:
5. the compound concentration leading to half maximal inhibitory (IC50) and the compound concentration leading to absolute half maximal inhibitory (Absolute IC50) were measured by a plate reader (M1000, Tecan) and a four-parameter curve fit in Graphpad Prism 7.

pIC50	SMILES
< 4.74	Cc1nc(-c2cnc3n(c2=O)CCCN3C)ccc1Oc1ccnc(-c2cnn(C)c2)c1 [Example 1, 9-methyl-3-(6-methyl-5-((2-(1-methyl-1H-pyrazol-4-yl)pyridin-4-yl)oxy)pyridin-2-yl)-6,7,8,9-tetrahydro-4H-pyrimido[1,2-a]pyrimidin-4-one]
< 5.70	CCN1CCCn2c1ncc(-c1ccc(Oc3ccnc(-c4cnn(C)c4)c3)c(C)n1)c2=O [Example 4]
